Results taken from patent US20150330991A1, “METHOD FOR IMPROVING TARGET AFFINITY OF PEPTIDE” (GWANGJU INSTITUTE OF SCIENCE AND TECHNOLOGY, priority 2012, published 2015).
Peptide text beside a SMILES is read from it.

What was measured:
[1] = target: VEGFR1 (Homo sapiens, UniProt P17948); assay: SPR (BIAcore) binding assay of VEGFR1_opti1 and control peptide on immobilized VEGFR1
Experimental: (§1) A VEGFR1-binding peptide optimized peptide and an existing peptide were synthesized (Anygen). The affinity measurement was conducted using BIAcore X (Biacore AB, Uppsala, Sweden). Here, 7000 RU of VEGFR1 was allowed to flow on the CM5 chip (Biacore) for immobilization. PBS (pH 7.4) was used as a running buffer, and the kinetics at different concentrations was measured under a flow rate of 30 μl per minute. The affinity was calculated using BlAevaluation software (Biacore AB, Uppsala, Sweden).

[2] = target: T1, ED-B protein (Homo sapiens, UniProt P02751); assay: SPR (BIAcore) binding strength assay on immobilized biotin-EDB; details: for Kd: read-out: KD = Koff/Kon
T1 construct: Biopanning on ED-B domain
T1 sequence (P02751 1271-1359 limits assumed): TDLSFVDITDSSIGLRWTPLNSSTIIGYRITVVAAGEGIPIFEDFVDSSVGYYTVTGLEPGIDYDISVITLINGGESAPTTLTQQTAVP
Experimental: The bipodal peptide binder found from BPB2EDB, BPB3EDB, and BPB4EDB maturation libraries were synthesized (Anygen, Korea). The affinity measurement was conducted using BIAcore X (Biacore AB, Uppsala, Sweden). 2,000 RU of biotin-EDB was allowed to flow on the streptavidin SA chip (Biacore) for immobilization. PBS (pH 7.4) was used as a running buffer, and kinetics at different concentrations was measured under a flow rate of 30 μl per minute. The affinity was calculated using BlAevaluation software (Biacore AB, Uppsala, Sweden).

[3] = target: T2, streptavidin (Streptomyces avidinii, UniProt P22629); assay: SPR (BIAcore) binding assay of Strep_opti1 and control peptide on immobilized streptavidin; details: from KD values
T2 sequence (P22629 25-183): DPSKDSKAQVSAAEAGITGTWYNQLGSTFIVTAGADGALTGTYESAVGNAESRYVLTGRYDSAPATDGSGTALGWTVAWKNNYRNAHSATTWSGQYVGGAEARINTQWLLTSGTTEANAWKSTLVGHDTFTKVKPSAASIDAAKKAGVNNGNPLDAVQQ
Experimental: as §1, with “streptavidin-binding” for “VEGFR1-binding”, “2000” for “7000”, “streptavidin” for “VEGFR1”

[4] = target: T2, streptavidin; assay: Phage ELISA specificity to streptavidin versus BSA, ovalbumin and VEGF; type: binding; details: ovalbumin, VEGF coated wells
Experimental: In order to investigate specificities to streptavidin, of peptides (Strep_opti1 and Strep_opti2) obtained through sequencing, recombinant phages expressing these peptides were used to investigate specificities to streptavidin, BSA, ovalbumin, and VEGF. First, 5 μg/ml streptavidin, BSA, ovalbumin, and VEGF were put in a 96-well ELISA plate (50 μl per well), and then allowed to stand at 4° C. overnight. Next day, all the wells were washed three times with 0.1% PBST, and blocked at room temperature for 2 hrs using 2% BSA diluted with PBS. Then, the solution was discarded, followed by washing with 0.1% PBST three times. 800 μl of recombinant phages of each of Strep_opti1 and Strep_opti2 and 200 μl of 10% BSA were added thereto, and each 100 μl was dispensed into streptavidin, BSA, ovalbumin, and VEGF wells, followed by standing at 27° C. for 1 hr. After washing five times with 0.1% PBST solution, the HRP-conjugated anti-M13 antibody (GE Healthcare) was diluted to 1:1,000, and then the reaction was performed at 27° C. for 1 hr. After washing five times with 0.1% PBST, 100 μl of the TMB solution was dispensed into each well to induce a colorimetric reaction, and then the reaction was stopped by adding 100 μl of 1 M HCl. The absorbance was measured at 450 nm.

VEGFR1, sequence (P17948 27-1338, species assumed): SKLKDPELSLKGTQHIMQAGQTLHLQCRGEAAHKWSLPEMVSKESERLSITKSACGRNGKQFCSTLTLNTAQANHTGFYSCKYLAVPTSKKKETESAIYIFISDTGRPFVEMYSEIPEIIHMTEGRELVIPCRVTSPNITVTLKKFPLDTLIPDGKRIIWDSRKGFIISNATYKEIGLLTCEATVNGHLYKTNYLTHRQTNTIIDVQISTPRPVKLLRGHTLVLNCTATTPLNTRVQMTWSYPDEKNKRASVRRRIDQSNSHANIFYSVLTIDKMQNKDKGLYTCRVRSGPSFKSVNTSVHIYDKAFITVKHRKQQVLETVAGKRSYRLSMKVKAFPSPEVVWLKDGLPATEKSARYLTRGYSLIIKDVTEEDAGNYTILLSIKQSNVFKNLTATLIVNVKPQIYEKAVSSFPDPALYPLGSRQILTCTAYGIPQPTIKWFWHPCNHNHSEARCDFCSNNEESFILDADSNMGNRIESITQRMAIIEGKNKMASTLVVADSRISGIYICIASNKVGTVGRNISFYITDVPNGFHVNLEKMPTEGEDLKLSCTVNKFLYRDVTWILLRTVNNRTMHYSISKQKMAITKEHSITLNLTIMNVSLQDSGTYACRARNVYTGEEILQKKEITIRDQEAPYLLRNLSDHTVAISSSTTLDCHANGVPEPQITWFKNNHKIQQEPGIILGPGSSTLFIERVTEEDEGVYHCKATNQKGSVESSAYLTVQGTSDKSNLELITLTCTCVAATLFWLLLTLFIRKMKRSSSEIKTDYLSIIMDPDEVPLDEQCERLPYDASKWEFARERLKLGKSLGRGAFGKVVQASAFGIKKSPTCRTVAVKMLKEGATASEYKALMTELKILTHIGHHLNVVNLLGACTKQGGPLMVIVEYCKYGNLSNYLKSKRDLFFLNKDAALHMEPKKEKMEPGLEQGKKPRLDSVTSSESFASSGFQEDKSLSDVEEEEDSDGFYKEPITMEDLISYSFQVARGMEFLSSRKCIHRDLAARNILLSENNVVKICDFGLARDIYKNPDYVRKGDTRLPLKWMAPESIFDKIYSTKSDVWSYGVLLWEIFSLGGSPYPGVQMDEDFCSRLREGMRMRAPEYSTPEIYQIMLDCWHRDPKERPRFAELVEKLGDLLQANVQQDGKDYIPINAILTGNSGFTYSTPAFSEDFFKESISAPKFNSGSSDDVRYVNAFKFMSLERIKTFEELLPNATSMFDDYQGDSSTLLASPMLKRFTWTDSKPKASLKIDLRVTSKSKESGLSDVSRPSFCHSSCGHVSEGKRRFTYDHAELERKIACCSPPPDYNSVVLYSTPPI

GNQWFIGGGSWTWENGKWTWKGRIPKNR (VEGFR1_opti1)
SPR response increase ([1]; at 5 μM peptide): 45 RU | fold increase in affinity versus control peptide ([1]; from RU at 5 μM versus 200 μM): about 360 fold

CC[C@H](C)[C@H](NC(=O)CNC(=O)[C@H](CCCCN)NC(=O)[C@H](Cc1c[nH]c2ccccc12)NC(=O)[C@@H](NC(=O)[C@H](Cc1c[nH]c2ccccc12)NC(=O)[C@H](CCCCN)NC(=O)CNC(=O)[C@H](CC(N)=O)NC(=O)[C@H](CCC(=O)O)NC(=O)[C@H](Cc1c[nH]c2ccccc12)NC(=O)[C@@H](NC(=O)[C@H](Cc1c[nH]c2ccccc12)NC(=O)[C@H](CO)NC(=O)CNC(=O)[C@H](CCC(N)=O)NC(=O)[C@@H](NC(=O)[C@@H]1CCCN1C(=O)[C@H](CO)NC(=O)[C@H](CO)NC(=O)[C@H](CS)NC(=O)[C@H](CO)NC(=O)[C@@H](N)Cc1c[nH]cn1)[C@@H](C)CC)[C@@H](C)O)[C@@H](C)O)C(=O)N[C@H](C(=O)N[C@@H](CCCNC(=N)N)C(=O)N[C@@H](CC(C)C)C(=O)N[C@@H](CCC(=O)O)C(=O)N[C@@H](CCC(N)=O)C(=O)N[C@@H](CCC(N)=O)C(=O)N1CCC[C@H]1C(=O)O)[C@@H](C)CC [BPB4EDB] (H-HSCSSPIQGSWTWENGKWTWKGIIRLEQQP-OH; N-terminus and C-terminus assumed)
fold increase in affinity compared with BPB1 ([2]; through the optimization system): 21 fold

CC[C@H](C)[C@H](NC(=O)CNC(=O)[C@H](CCCCN)NC(=O)[C@H](Cc1c[nH]c2ccccc12)NC(=O)[C@@H](NC(=O)[C@H](Cc1c[nH]c2ccccc12)NC(=O)[C@H](CCCCN)NC(=O)CNC(=O)[C@H](CC(N)=O)NC(=O)[C@H](CCC(=O)O)NC(=O)[C@H](Cc1c[nH]c2ccccc12)NC(=O)[C@@H](NC(=O)[C@H](Cc1c[nH]c2ccccc12)NC(=O)[C@H](CO)NC(=O)CNC(=O)[C@H](CCC(N)=O)NC(=O)[C@@H](NC(=O)[C@@H]1CCCN1C(=O)[C@H](CO)NC(=O)[C@H](CO)NC(=O)[C@@H](N)CS)[C@@H](C)CC)[C@@H](C)O)[C@@H](C)O)C(=O)N[C@H](C(=O)N[C@@H](CCCNC(=N)N)C(=O)N[C@@H](CC(C)C)C(=O)N[C@@H](CCC(=O)O)C(=O)N[C@@H](CCC(N)=O)C(=O)O)[C@@H](C)CC [peptide 3] (H-CSSPIQGSWTWENGKWTWKGIIRLEQ-OH; N-terminus and C-terminus assumed)
Koff ([2]; SPR, target binding kinetics): 5.1 × 10^−4 S^−1 | Kon ([2]; SPR, target binding kinetics): 3.0 × 10^4 M^−1S^−1 | Kd ([2]; SPR, target binding kinetics): 16 nM

CC(C)[C@H](NC(=O)[C@H](CCC(N)=O)NC(=O)[C@@H]1CCCN1C(=O)[C@H](Cc1c[nH]cn1)NC(=O)[C@H](C)NC(=O)CNC(=O)[C@H](CCCCN)NC(=O)[C@H](Cc1c[nH]c2ccccc12)NC(=O)[C@@H](NC(=O)[C@H](Cc1c[nH]c2ccccc12)NC(=O)[C@H](CCCCN)NC(=O)CNC(=O)[C@H](CC(N)=O)NC(=O)[C@H](CCC(=O)O)NC(=O)[C@H](Cc1c[nH]c2ccccc12)NC(=O)[C@@H](NC(=O)[C@H](Cc1c[nH]c2ccccc12)NC(=O)[C@H](CO)NC(=O)CNC(=O)CNC(=O)CNC(=O)[C@H](CCCCN)NC(=O)[C@H](CCC(=O)O)NC(=O)[C@H](Cc1ccccc1)NC(=O)[C@H](CCC(N)=O)NC(=O)[C@@H]1CCCN1C(=O)[C@H](Cc1c[nH]cn1)NC(=O)[C@H](CO)NC(=O)[C@@H](N)Cc1c[nH]c2ccccc12)[C@@H](C)O)[C@@H](C)O)C(=O)N[C@@H](CCCNC(=N)N)C(=O)O [Strep_opti1] (H-WSHPQFEKGGGSWTWENGKWTWKGAHPQVR-OH; N-terminus and C-terminus assumed)
fold increase in affinity compared with control peptide WSHPQFEK [3]: 1223 fold | specificity (phage ELISA absorbance at 450 nm) [4]: specifically bind to streptavidin

WSHPQFEKGGGSWTWENGKWTWKG TLIHPM [Strep_opti2]
specificity (phage ELISA absorbance at 450 nm) [4]: specifically bind to streptavidin

CC[C@H](C)[C@H](NC(=O)CNC(=O)[C@H](CCCCN)NC(=O)[C@H](Cc1c[nH]c2ccccc12)NC(=O)[C@@H](NC(=O)[C@H](Cc1c[nH]c2ccccc12)NC(=O)[C@H](CCCCN)NC(=O)CNC(=O)[C@H](CC(N)=O)NC(=O)[C@H](CCC(=O)O)NC(=O)[C@H](Cc1c[nH]c2ccccc12)NC(=O)[C@@H](NC(=O)[C@H](Cc1c[nH]c2ccccc12)NC(=O)[C@H](CO)NC(=O)CNC(=O)[C@@H](NC(=O)[C@H](C)NC(=O)[C@H](CO)NC(=O)[C@H](CO)NC(=O)[C@H](CS)NC(=O)[C@@H](N)Cc1c[nH]cn1)C(C)C)[C@@H](C)O)[C@@H](C)O)C(=O)N[C@H](C(=O)N[C@@H](CCCNC(=N)N)C(=O)N[C@@H](CC(C)C)C(=O)N[C@@H](CCC(=O)O)C(=O)N[C@@H](CCC(N)=O)C(=O)O)[C@@H](C)CC [BPB1EDB] (H-HCSSAVGSWTWENGKWTWKGIIRLEQ-OH; N-terminus and C-terminus assumed)
Kd ([2]; SPR, target binding kinetics): 75 nM
